Test system: human RPE cells
Experiment: Determination of ROS (CM-H2DCFDA fluorescence)
Format: cell-based
Conditions: HQ 160 μM vs control
Description: Human donor RPE cells were seeded on collagen-coated 96-well plates, 24-well plates with or without coverslips, 6-well plates (Corning-Costar Incorporated, Corning, N.Y., USA). Except for the Seahorse assay, on day 6 after plating, cells were washed twice with serum-free and phenol red-free MEM (SF-MEM), treated with HQ at a various concentrations in the presence or absence of RSG (0.4 mM) in SF-MEM for various times at 37° C. RSG co-treatment refers to the condition in which cells were treated with RSG in the presence of HQ. Control refers to the condition in which cells were not treated. RPE cells in triplicate wells of a 96-well black plates with clear bottoms were washed with SF-MEM, loaded with 20 μM CM-H2DCFDA in SF-MEM for 30 minutes at 37° C. and then washed twice. Cells were then treated with HQ (160 μM) in the presence or absence of RSG (0.4 mM). Fluorescence was measured at various times with a fluorescence plate reader (490 nm excitation, 522 nm emission).

For `Oc1ccc(O)cc1` [HQ, hydroquinone, reference compound], the ROS production was “significantly increased”.
